What all share (format): cell-based
For assay [1], the target named is T1, Ba/F3 cells with EGFR WT (Homo sapiens, UniProt P00533).
T1 construct: expressed in transfected cells; host or cells: Ba/F3 (murine pro-B cells), retroviral transduction, puromycin selection, maintained with EGF
Kind of assay: EGFR activity: Ba/F3 cell viability (CellTiter-Glo, 72 h), EGFR WT. The conditions noted are these: read-out: BaF3 WT IC50. For orientation: Cellular ATP, detected with luciferase, serves as a proxy for viable cell number.

Assay [2] deals with T2, Ba/F3 cells with EGFR exon 20 NPG Ins D770_N771 (Homo sapiens, UniProt P00533, INS770NPG).
T2 construct: expressed in transfected cells; host or cells: Ba/F3 (murine pro-B cells), retroviral transduction, puromycin selection, IL3-independent pool
T2 sequence (P00533 with tags, fused parts or gaps INS770NPG): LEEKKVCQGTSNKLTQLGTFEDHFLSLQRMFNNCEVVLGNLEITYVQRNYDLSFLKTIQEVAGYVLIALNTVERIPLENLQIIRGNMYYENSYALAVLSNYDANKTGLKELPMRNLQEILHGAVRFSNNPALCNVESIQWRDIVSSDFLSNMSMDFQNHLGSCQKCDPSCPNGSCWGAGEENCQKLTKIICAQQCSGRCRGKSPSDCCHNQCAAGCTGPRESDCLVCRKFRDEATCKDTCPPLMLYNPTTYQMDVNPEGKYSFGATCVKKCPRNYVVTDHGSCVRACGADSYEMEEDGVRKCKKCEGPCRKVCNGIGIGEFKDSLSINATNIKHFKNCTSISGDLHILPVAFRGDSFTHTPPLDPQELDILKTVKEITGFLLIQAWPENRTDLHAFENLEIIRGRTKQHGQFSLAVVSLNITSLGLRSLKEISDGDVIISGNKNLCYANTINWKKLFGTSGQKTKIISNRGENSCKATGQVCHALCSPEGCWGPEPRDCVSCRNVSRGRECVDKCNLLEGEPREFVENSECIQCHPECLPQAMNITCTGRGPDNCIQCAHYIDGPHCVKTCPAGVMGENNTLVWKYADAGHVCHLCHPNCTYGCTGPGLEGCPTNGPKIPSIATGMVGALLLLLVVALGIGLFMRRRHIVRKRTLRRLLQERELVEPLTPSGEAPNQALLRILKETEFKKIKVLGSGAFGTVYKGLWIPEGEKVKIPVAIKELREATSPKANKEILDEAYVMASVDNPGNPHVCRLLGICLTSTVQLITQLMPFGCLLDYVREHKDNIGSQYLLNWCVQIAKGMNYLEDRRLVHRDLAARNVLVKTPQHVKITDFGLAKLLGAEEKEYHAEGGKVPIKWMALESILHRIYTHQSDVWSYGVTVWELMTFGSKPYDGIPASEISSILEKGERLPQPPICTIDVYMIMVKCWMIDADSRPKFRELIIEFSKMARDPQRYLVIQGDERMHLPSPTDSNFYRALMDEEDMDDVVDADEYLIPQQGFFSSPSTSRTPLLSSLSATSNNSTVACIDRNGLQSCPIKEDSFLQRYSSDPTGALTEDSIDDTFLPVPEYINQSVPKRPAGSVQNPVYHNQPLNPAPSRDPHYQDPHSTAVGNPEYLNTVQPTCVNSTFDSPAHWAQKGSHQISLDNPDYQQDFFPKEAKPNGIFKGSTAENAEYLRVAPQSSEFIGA
Kind of assay: EGFR activity: Ba/F3 cell viability (CellTiter-Glo, 72 h), EGFR exon 20 NPG insertion. The settings on record: EGFR exon 20 NPG Ins D770_N771, cell viability, read-out: BaF3 NPG IC50.

Assay [3] addresses T3, Ba/F3 cells with EGFR exon 20 ASV Ins V769_D770 (Homo sapiens, UniProt P00533, INS769ASV).
T3 construct: expressed in transfected cells; host or cells: Ba/F3 (murine pro-B cells), retroviral transduction, puromycin selection, IL3-independent pool
Kind of assay: EGFR activity: Ba/F3 cell viability (CellTiter-Glo, 72 h), EGFR exon 20 ASV insertion. The settings on record: EGFR exon 20 ASV Ins V769_D770, cell viability, read-out: BaF3 ASV IC50.

The target of assay [4] is T4, pEGFR in Ba/F3 cells expressing EGFR exon 20 NPG Ins D770_N771 (Homo sapiens, UniProt P00533, INS770NPG).
T4 construct: expressed in transfected cells; host or cells: Ba/F3 (murine pro-B cells), retroviral transduction, puromycin selection, IL3-independent pool
T4 sequence (P00533 with tags, fused parts or gaps INS770NPG): as above
Kind of assay: Inhibitor activity on EGFR phosphorylation (pEGFR AlphaLISA, 2 h), Ba/F3 EGFR exon 20 NPG insertion. The settings on record: Ba/F3 EGFR exon 20 NPG Ins D770_N771. For orientation: Alpha assays give light when donor and acceptor beads are brought close together.

T1 sequence (P00533 25-1210): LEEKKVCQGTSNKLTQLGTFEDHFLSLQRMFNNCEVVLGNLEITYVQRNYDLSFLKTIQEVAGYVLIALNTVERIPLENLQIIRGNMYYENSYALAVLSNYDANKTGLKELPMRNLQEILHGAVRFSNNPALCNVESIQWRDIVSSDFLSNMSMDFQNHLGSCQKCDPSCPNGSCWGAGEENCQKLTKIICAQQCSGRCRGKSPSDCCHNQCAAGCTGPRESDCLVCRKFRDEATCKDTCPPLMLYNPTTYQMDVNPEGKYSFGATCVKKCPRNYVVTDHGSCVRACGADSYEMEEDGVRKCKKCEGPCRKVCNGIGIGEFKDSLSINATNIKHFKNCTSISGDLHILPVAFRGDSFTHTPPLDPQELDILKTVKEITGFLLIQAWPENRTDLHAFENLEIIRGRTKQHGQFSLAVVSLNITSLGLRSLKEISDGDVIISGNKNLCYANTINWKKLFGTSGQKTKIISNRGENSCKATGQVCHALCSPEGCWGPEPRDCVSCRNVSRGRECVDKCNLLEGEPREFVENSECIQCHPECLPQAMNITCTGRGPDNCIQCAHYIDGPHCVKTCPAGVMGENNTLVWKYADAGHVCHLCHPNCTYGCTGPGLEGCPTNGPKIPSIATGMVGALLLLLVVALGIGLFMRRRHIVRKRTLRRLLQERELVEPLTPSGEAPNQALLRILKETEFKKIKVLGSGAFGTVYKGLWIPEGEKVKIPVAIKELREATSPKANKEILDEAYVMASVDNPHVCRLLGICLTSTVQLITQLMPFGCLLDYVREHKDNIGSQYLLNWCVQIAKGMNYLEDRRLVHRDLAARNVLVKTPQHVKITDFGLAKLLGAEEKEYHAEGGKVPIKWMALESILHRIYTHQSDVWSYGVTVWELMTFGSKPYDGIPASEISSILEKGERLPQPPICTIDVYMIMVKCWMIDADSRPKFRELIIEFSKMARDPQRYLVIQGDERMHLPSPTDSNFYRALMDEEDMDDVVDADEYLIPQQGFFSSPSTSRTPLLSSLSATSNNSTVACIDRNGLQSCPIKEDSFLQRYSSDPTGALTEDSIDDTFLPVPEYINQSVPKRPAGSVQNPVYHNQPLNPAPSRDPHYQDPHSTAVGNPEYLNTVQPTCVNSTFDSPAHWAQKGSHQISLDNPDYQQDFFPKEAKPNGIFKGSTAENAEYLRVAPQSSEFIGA
T3 sequence (P00533 with tags, fused parts or gaps INS769ASV): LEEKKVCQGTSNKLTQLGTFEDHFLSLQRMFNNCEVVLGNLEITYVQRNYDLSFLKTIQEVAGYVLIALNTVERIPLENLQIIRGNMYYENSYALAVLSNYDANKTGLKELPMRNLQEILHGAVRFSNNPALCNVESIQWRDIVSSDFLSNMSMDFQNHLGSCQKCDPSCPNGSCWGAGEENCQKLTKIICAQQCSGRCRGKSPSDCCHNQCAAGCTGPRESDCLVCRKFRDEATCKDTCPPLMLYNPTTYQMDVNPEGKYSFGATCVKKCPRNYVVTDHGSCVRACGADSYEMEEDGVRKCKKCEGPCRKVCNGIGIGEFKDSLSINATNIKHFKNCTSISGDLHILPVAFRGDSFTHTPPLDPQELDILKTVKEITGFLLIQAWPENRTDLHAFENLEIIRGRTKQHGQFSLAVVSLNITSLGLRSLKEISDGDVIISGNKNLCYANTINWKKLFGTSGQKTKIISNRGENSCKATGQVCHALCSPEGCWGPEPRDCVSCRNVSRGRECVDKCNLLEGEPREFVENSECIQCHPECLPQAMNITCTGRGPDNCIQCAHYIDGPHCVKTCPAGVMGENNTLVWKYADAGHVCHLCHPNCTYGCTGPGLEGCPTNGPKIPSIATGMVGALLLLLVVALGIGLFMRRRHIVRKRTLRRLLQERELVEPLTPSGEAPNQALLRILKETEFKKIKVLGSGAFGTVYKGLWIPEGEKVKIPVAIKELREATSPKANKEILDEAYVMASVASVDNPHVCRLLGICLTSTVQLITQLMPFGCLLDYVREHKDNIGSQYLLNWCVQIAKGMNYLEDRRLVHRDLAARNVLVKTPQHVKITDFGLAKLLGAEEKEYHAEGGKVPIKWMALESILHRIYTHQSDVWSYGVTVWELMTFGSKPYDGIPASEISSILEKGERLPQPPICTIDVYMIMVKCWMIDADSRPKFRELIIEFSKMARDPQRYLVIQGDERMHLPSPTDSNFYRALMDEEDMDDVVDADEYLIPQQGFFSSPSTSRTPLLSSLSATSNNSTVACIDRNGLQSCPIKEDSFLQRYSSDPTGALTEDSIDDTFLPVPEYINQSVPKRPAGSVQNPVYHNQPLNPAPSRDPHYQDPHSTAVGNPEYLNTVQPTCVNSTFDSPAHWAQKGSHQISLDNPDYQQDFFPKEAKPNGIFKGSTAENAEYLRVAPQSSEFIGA

As a reminder, the IC50 is the concentration that gives 50% inhibition. Consider `CCC(=O)N1CCC[C@H]1COc1cnccc1-c1[nH]c2c(c1Nc1cccc(Cl)c1OC)C(=O)NCC2` [Compound 139, (S)-3-((3-chloro-2-methoxyphenyl)amino)-2-(3-((1-propionylpyrrolidin-2-yl)methoxy)pyridin-4-yl)-1,5,6,7-tetrahydro-4H-pyrrolo[3,2-c]pyridin-4-one], for which the IC50 in assay [1] was more than 1000 nM; in assay [2] it was more than 1000 nM; in assay [3] it was more than 1000 nM; in assay [4] it was 100 to 1000 nM.
As to `C=CC(=O)N1CCC[C@H]1COc1cnccc1-c1[nH]c2c(c1Nc1cccc(F)c1CC)C(=O)NCC2` [compound 211, 3-[(2-ethyl-3-fluorophenyl)amino]-2-(3-{[(2S)-1-(prop-2-enoyl)pyrrolidin-2-yl]methoxy}pyridin-4-yl)-1H,5H,6H,7H-pyrrolo[3,2-c] pyridin-4-one], the IC50 in assay [1], in assay [2], in assay [3] and in assay [4] was less than 100 nM in each case.
Turning to `COc1c(F)cccc1Nc1c(-c2ccncc2OCc2nccn2C)[nH]c2c1C(=O)NCC2` [Compound 482, 3-[(3-fluoro-2-methoxyphenyl)amino]-2-[3-[(1-methylimidazol-2-yl)methoxy]pyridin-4-yl]-1H,5H,6H,7H-pyrrolo[3,2-c]pyridin-4-one], the IC50 in assay [1] is more than 1000 nM; in assay [2], 100 to 1000 nM; in assay [4], less than 100 nM.
As to `C=CC(=O)N1CCC[C@H]1COc1cnccc1-c1[nH]c2c(c1Nc1cccc(Cl)c1OC)C(=O)NCC2` [Compound 138b, (S)-2-(3-((1-acryloylpyrrolidin-2-yl)methoxy)pyridin-4-yl)-3-((3-chloro-2-methoxyphenyl)amino)-1,5,6,7-tetrahydro-4H-pyrrolo[3,2-c]pyridin-4-one], the IC50 in assay [1] was 100 to 1000 nM; in assay [2] it was less than 100 nM; in assay [3] it was less than 100 nM; in assay [4], less than 100 nM.
In the case of `C=CC(=O)N1CCCC[C@@H]1COc1cnccc1-c1[nH]c2c(c1Nc1cccc(F)c1C)C(=O)NCC2` [Compound 468, 3-[(3-fluoro-2-methylphenyl)amino]-2-(3-[[(2R)-1-(prop-2-enoyl)piperidin-2-yl]methoxy]pyridin-4-yl)-1H,5H,6H,7H-pyrrolo[3,2-c]pyridin-4-one], the IC50 in assay [1] is 100 to 1000 nM; in assay [2], 100 to 1000 nM; in assay [3], 100 to 1000 nM; in assay [4], less than 100 nM.
Regarding `COc1c(Cl)cccc1Nc1c(-c2ccncc2C#CC(C)(C)OC)[nH]c2c1C(=O)NCC2` [Compound 188, 3-((3-chloro-2-methoxyphenyl)amino)-2-(3-(3-methoxy-3-methylbut-1-yn-1-yl)pyridin-4-yl)-1,5,6,7-tetrahydro-4H-pyrrolo[3,2-c]pyridin-4-one], the IC50 was less than 100 nM in assay [1], less than 100 nM in assay [2], 100 to 1000 nM in assay [3] and less than 100 nM in assay [4].
Consider `COc1c(F)cccc1Nc1c(-c2ccncc2OCC2CCc3nccn32)[nH]c2c1C(=O)NCC2` (stereo not shown) [Compound 128, 2-(3-((6,7-dihydro-5H-pyrrolo[1,2-a]imidazol-5-yl)methoxy)pyridin-4-yl)-3-((3-fluoro-2-methoxyphenyl)amino)-1,5,6,7-tetrahydro-4H-pyrrolo[3,2-c]pyridin-4-one], for which the IC50 in assay [1], in assay [2] and in assay [4] was more than 1000 nM each time.
For `COc1c(F)cccc1Nc1c(-c2ccncc2OCc2ccccn2)[nH]c2c1C(=O)NCC2` [Compound 472, 3-[(3-fluoro-2-methoxyphenyl)amino]-2-[3-(pyridin-2-ylmethoxy)pyridin-4-yl]-1H,5H,6H,7H-pyrrolo[3,2-c]pyridin-4-one], the IC50 in assay [1], in assay [2], in assay [3] and in assay [4] was less than 100 nM in each case.
On to `COc1c(F)cccc1Nc1c(-c2ccncc2OCn2nnc3ccccc32)[nH]c2c1C(=O)NCC2` [Compound 479, 2-[3-(1,2,3-benzotriazol-1-ylmethoxy)pyridin-4-yl]-3-[(3-fluoro-2-methoxyphenyl)amino]-1H,5H,6H,7H-pyrrolo[3,2-c]pyridin-4-one], for which the results for the IC50 in assay [1], in assay [2] and in assay [4] were more than 1000 nM, more than 1000 nM and 100 to 1000 nM, respectively.
As to `COc1c(Cl)cccc1Nc1c(-c2ccncc2C#C[C@@H]2CN(C)CCO2)[nH]c2c1C(=O)NCC2` [compound 496], the IC50 in assay [1] was more than 1000 nM; in assay [2], less than 100 nM; in assay [3], less than 100 nM; in assay [4] it was less than 100 nM.
Consider `CCC(=O)N1CCC[C@@H]1COc1cnccc1-c1[nH]c2c(c1Nc1cccc(Cl)c1OC)C(=O)NCC2` [Compound 470, 3-[(3-chloro-2-methoxyphenyl)amino]-2-(3-[[(2R)-1-propanoylpyrrolidin-2-yl]methoxy]pyridin-4-yl)-1H,5H,6H,7H-pyrrolo[3,2-c]pyridin-4-one], for which the half-inhibitory concentration (IC50) in assay [1] is more than 1000 nM; in assay [2], more than 1000 nM; in assay [3], more than 1000 nM; in assay [4], 100 to 1000 nM.
As for `COc1c(Cl)cccc1Nc1c(-c2ccncc2OC[C@H]2CCCN2C(C)=O)[nH]c2c1C(=O)NCC2` [Compound 141b, 2-(3-[[(2R)-1-acetylpyrrolidin-2-yl]methoxy]pyridin-4-yl)-3-[(3-chloro-2-methoxyphenyl)amino]-1H,5H,6H,7H-pyrrolo[3,2-c]pyridin-4-one], the values for the IC50 in assay [1], in assay [2] and in assay [4] were more than 1000 nM, more than 1000 nM and less than 100 nM, respectively.
`C=CC(=O)N1CCOC[C@@H]1C#Cc1cnccc1-c1[nH]c2c(c1Nc1cccc(Cl)c1OC)C(=O)NCC2` [compound 515, 3-[(3-chloro-2-methoxyphenyl)amino]-2-(3-{2-[(3S)-4-(prop-2-enoyl)morpholin-3-yl]ethynyl}pyridine-4-yl)-1H,5H,6H,7H-pyrrolo[3,2-c]pyridin-4-one] yielded an IC50 in assay [4] of less than 100 nM.
In the case of `COc1c(Cl)cccc1Nc1c(-c2ccncc2OCc2ccco2)[nH]c2c1C(=O)NCC2` [compound 471, 3-[(3-chloro-2-methoxyphenyl)amino]-2-[3-(furan-2-ylmethoxy)pyridin-4-yl]-1H,5H,6H,7H-pyrrolo[3,2-c]pyridin-4-one], in assay [4], the IC50 was more than 1000 nM.
As to `COc1c(Cl)cccc1Nc1c(-c2ccncc2OC[C@@H]2CCCN2C(C)=O)[nH]c2c1C(=O)NCC2` [Compound 141a, (S)-2-(3-((1-acetylpyrrolidin-2-yl)methoxy)pyridin-4-yl)-3-((3-chloro-2-methoxyphenyl)amino)-1,5,6,7-tetrahydro-4H-pyrrolo[3,2-c]pyridin-4-one], the IC50 is more than 1000 nM in assay [1], more than 1000 nM in assay [2] and 100 to 1000 nM in assay [4].
On to `COc1c(F)cccc1Nc1c(-c2ccncc2OCC2CCc3ncnn32)[nH]c2c1C(=O)NCC2` (stereo not shown) [compound 133], for which the values for the IC50 in assay [1], in assay [2] and in assay [4] were more than 1000 nM, 100 to 1000 nM and less than 100 nM, respectively.
Take `COc1c(F)cccc1Nc1c(-c2ccncc2OCc2nnc3n2CCC3)[nH]c2c1C(=O)NCC2` [Compound 131, 3-[(3-fluoro-2-methoxyphenyl)amino]-2-(3-[5H,6H,7H-pyrrolo[2,1-c][1,2,4]triazol-3-ylmethoxy]pyridin-4-yl)-1H,5H,6H,7H-pyrrolo[3,2-c]pyridin-4-one]: the IC50 in assay [1], in assay [2] and in assay [4] was more than 1000 nM in each case.

Source of the values: US20230364070A1, “PYRROLO[3,2-C]PYRIDIN-4-ONE DERIVATIVES USEFUL IN THE TREATMENT OF CANCER” (Scorpion Therapeutics, Inc., priority 2020, published 2023).
